Where two headings read alike, the source gives them in different places.
What was measured:
[1] = system: HeyA8 ovarian cancer cells; format: cell-based
Description: Cell transit times were determined in accordance with the approach described above. […] In the testing, Phosphate Buffered Saline (PBS) suspended HeyA8 ovarian cancer cells were driven through the device using a pressure pump controller (Fluigent MFCS-EZ) at 80 mbar. Three suspensions of cells with varying stiffness were prepared. The first sample was exposed to 1 μM Latrunculin A, abbreviated as LatA, (Sigma-Aldrich), an Actin polymerization inhibitor, for 60 mins at 37° C. to reduce the cell stiffness. The second sample was left untreated. […] In operation, the sensor network 620 was driven with an 500 kHz AC signal and the electrical sensor data from the chip was recorded using a lock-in-amplifier (Zurich Instruments HF2LI) and sampled into a computer. The cell size and the transit time were both measured from the sensor signal peak amplitude and the time delay between the code waveforms corresponding to sensor pairs, respectively.

[2] = system: MDA-MB-231 (human mammary adenocarcinoma) cells; format: cell-based
Description: For each population in our experiments, we used the computed sensor signal amplitude and constriction transit time as measures of the cell size and its stiffness, respectively (see FIGS. 10A-10C).
Because the data on different cell populations were acquired under the same driving pressure and electrical excitation, we could directly compare the characterization results (see FIG. 10D).
For the single frequency device, two different sample of MDA-MB-231 cells were treated with Latrunculin A (Sigma-Aldrich; St. Louis, MO) and formaldehyde (Sigma-Aldrich; St. Louis, MO) and suspended in Phosphate Buffered Saline (PBS). […] Prior to experiments, the cells were trypsinized for two minutes, pelleted, resuspended in PBS and mixed gently to dissociate cell clusters that may have formed. Finally, the suspension was diluted with PBS to a cell concentration of 1.5×10^6 cells/mL. For the LatA exposure, 100 μg of LatA in lyophilized powder form was reconstituted in dimethyl sulfoxide (DMSO), then diluted in PBS to form a 5.9 nM stock solution. The trypsinized and pelleted MDA-MB-231 cells were mixed with 1 mL of 1 nM LatA and incubated at 37° C. for 60 mins. The cells were pelleted once more and resuspended in PBS. […] The trypsinized and pelleted MDA-MB-231 cells were mixed with diluted 4% PFA and incubated at 37° C. for 10 mins. The cells were pelleted once more and resuspended in PBS.
During the above-described experiment, the cell sample was loaded into a sealed 10 mL laboratory tube and pneumatically driven through the device using a software-controlled pressure regulator (MFCSEZ, Fluigent). The driving pressure was 100 mbar for both single-frequency and multi-frequency devices. In the case of the single-frequency device, the electrical networks were excited using a 800 mVpp, 500 kHz sinusoidal signal generated by the lock-in amplifier (HF2LI, Zurich Instruments). For the multi-frequency device, the 500 kHz and 900 kHz sine signals were generated by the lock-in amplifier, whereas the 1300 kHz signal was obtained using a waveform generator (33612A, Keysight), all at 800 mVpp.

Compound	longer transit time of treated cells compared to the untreated cells [1] [%]	average constriction transit time of treated cells [2] [ms]	transit time of the untreated cells longer than that of the LatA treated cells, on average ([1]; HeyA8 cells in PBS, 1 μM Latrunculin A, 60 mins at 37° C., driven at 80 mbar) [%]	less constriction transit time than untreated cells, on average ([2]; MDA-MB-231, 1 nM LatA 60 mins at 37° C., 100 mbar) [%]	average constriction transit time of treated cells ([2]; MDA-MB-231, 100 mbar, 1.5×10^6 cells/mL, LatA 1 nM 60 mins 37° C., fixation with diluted 4% PFA 10 mins 37° C.) [ms]
C=O [Formaldehyde]	36	54.01	–	–	–
C/C1=C/C(=O)O[C@@H]2C[C@@H](CC[C@H](C)/C=C\C=C\CC1)O[C@@](O)([C@@H]1CSC(=O)N1)C2 [LatA, Latrunculin A]	–	–	34	8.9	42.35

Source: patent US12233413B2, “Massively parallel microfluidic cell analyzer for high throughput mechanophenotyping” (priority 2018, dated 2025)
